From ChEMBL document CHEMBL5729519, “Methods and composition of 4-substituted benzoylpiperazine-1-substituted carbonyls as beta-catenin/B-cell lymphoma 9 inhibitors” (2023)

Target: beta-catenin-B-cell lymphoma 9 protein complex (Homo sapiens, UniProt P35222+O00512)
Experiment: Alphascreen Assay: Alphascreen Assays to Determine the Apparent Kd Values for Wild-Type and Mutant β-Catenin/BCL9 InteractionsThe experimental detail using AlphaScreen to determine the apparent Kd values for β-catenin/BCL9 and β-catenine/E-cadherin PPIs has been described previously (Zhang et al. (2015) Anal. Biochem. 469: 43-53). The concentrations of mutant β-catenin proteins used in the assays were the same as that of wild-type β-catenin.
Assay type: protein-complex assay

Sequence of beta-catenin-B-cell lymphoma 9 protein complex (O00512 whole entry, stated change not applied): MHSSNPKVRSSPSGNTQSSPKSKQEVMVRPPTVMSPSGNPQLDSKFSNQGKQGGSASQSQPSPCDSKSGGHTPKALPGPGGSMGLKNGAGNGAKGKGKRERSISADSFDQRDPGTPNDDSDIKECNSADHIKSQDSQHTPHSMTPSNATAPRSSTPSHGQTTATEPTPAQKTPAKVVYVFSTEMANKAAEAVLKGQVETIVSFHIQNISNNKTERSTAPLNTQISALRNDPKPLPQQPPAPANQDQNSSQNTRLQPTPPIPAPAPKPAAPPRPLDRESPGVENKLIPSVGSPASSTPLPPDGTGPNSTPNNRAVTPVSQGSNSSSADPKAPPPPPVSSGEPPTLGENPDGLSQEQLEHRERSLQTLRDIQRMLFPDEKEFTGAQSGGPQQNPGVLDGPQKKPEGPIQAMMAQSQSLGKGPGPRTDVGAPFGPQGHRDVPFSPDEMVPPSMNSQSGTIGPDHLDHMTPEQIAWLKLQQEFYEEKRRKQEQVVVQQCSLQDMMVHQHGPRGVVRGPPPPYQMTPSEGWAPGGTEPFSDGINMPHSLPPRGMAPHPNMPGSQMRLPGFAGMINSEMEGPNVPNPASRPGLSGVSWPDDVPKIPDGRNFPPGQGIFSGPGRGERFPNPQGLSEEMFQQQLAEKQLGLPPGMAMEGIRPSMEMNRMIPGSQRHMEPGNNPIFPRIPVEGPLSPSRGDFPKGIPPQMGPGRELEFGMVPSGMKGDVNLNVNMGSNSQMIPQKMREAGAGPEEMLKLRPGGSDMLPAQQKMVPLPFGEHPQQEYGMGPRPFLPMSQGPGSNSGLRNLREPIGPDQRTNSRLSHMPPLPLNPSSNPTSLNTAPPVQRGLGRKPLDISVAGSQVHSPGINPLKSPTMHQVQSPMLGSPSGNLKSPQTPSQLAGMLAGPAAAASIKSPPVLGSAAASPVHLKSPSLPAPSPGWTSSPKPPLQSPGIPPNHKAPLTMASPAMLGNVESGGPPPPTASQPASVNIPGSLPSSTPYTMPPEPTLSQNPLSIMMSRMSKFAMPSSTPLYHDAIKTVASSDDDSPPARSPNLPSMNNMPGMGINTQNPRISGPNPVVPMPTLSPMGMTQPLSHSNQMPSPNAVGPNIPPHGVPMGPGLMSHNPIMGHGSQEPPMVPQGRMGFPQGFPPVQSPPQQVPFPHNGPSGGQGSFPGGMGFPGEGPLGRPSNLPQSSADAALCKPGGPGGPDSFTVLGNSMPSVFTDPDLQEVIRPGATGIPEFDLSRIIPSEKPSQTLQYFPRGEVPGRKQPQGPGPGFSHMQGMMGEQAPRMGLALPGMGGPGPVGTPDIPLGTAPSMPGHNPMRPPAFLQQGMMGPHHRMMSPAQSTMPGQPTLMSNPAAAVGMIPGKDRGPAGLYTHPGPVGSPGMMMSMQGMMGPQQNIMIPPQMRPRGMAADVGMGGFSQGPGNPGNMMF
Sequence of beta-catenin-B-cell lymphoma 9 protein complex (P35222 2-781 limits assumed, stated change not applied): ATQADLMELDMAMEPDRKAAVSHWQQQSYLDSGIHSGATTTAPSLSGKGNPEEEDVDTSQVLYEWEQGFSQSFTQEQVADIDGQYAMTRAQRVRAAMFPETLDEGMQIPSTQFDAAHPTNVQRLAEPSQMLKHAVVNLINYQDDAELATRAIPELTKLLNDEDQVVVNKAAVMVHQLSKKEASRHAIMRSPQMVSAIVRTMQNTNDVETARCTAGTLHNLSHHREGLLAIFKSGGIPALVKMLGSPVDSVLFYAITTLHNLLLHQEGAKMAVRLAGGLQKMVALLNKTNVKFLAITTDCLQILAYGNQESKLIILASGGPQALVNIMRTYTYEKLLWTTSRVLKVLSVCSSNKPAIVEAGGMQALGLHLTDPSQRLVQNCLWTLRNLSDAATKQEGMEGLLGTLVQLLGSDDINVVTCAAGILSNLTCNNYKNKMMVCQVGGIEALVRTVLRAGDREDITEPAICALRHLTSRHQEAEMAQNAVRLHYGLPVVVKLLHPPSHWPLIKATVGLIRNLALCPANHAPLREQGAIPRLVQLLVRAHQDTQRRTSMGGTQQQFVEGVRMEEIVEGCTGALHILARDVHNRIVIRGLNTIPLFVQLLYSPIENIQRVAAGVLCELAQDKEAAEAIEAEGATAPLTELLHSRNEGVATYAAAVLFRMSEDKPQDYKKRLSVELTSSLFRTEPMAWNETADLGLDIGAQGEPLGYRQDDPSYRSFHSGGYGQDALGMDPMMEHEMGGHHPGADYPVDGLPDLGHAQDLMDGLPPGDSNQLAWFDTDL

Compound `CC(C)c1cc2c(c(O)c1O)[C@@]1(C(=O)O)CCCC(C)(C)[C@@H]1CC2` has a Ki of 5.3 µM.
